Laboratory results from article PMC8421423, “Cellular model system to dissect the isoform-selectivity of Akt inhibitors” (Nature Communications, 2021).
“And” between values parts separate entries of the source, which are not always exact repeats. Equal values may be shown once. Read-outs that look alike come from different tables or passages of the source. Values belong to the compound of their own block, whether it stands above or below them.

Assays:
Ba/F3^myr-Akt1 cells = experiment: CellTiter-Glo cell viability assay; settings: for Log ratio EC50 [Akt] / EC50 [Akt], Akt1 / Akt2: cell viability assay Ba/F3 myr-Akt cells, log units; for cell viability: CTG
Description: (§1) On day 0, cells were plated into white 384-well cell culture plates (Greiner Bio-One) using a Multidrop reagent dispenser (Thermo Fisher Scientific) at cell numbers that ensure linear and optimal luminescent signal intensity (Ba/F3myr-Akt1: 600 cells/well, Ba/F3myr-Akt2: 800 cells/well, Ba/F3myr-Akt3: 800 cells/well). […] Cell viability was analyzed on day 4 using the CellTiter-Glo Assay (Promega) as per the manufacturer’s instructions. […] All experimental points were measured in duplicates for each plate and were replicated in at least three plates.

parental Ba/F3 cells = experiment: CellTiter-Glo cell viability assay; format: cell-based, murine; settings: for cell viability: CTG, parental
Akt2 [1] = biological target: T1, Akt2 (Homo sapiens, UniProt P31751); experiment: PhosphoSens continuous fluorometric kinetic enzyme assay
T1 sequence (P31751 whole entry): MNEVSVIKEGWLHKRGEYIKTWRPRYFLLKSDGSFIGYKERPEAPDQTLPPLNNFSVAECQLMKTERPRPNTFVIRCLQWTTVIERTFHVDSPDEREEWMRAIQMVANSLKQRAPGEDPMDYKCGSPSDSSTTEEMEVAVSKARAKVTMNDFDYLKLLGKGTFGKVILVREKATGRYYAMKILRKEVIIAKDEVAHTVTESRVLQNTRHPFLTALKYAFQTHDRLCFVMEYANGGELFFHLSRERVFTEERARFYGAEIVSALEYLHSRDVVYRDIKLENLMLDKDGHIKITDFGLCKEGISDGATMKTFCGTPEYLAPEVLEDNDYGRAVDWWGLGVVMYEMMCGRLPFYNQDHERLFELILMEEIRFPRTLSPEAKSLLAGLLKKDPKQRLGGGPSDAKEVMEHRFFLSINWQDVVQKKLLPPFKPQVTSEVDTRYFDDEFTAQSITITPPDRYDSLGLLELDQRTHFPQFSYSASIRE
Description: (§2) By addition of either 8 nM Akt1, 2 nM Akt2, or 5 nM Akt3 (final concentrations) the reactions were initiated. […] Afterwards the kobs-values were plotted versus the inhibitor concentrations [I] and then fit to the following hyperbolic Eq.

Akt3 [2] = biological target: T2, Akt3 (Homo sapiens, UniProt Q9Y243); experiment: as above
T2 sequence (Q9Y243 whole entry): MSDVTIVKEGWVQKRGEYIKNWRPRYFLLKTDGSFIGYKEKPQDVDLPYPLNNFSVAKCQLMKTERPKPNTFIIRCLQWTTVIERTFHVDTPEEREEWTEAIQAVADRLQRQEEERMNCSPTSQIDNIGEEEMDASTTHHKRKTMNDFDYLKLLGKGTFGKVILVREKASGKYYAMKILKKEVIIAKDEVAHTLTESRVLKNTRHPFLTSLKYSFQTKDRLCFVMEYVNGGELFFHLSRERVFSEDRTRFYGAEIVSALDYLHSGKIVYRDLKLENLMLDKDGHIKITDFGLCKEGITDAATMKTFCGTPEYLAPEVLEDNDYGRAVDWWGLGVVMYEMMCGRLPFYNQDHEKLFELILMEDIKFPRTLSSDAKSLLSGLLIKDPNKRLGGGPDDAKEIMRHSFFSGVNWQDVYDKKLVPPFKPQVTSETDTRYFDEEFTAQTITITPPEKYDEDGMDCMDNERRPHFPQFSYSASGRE
Description: as §2

Ba/F3^myr-Akt3 cells = experiment: CellTiter-Glo cell viability assay; settings: for Log ratio EC50 [Akt] / EC50 [Akt], Akt3 / Akt2: cell viability assay Ba/F3 myr-Akt cells, log units; for cell viability: CTG
Akt3 [3] = biological target: T2, Akt3; experiment: STK HTRF KinEASE activity-based assay (IC50)
Ba/F3^myr-Akt2 cells = experiment: CellTiter-Glo cell viability assay
Description: as §1

Akt1 [4] = biological target: T3, Akt1 (Homo sapiens, UniProt P31749); experiment: STK HTRF KinEASE activity-based assay (IC50); settings: for Log ratio IC50 [Akt] / IC50 [Akt], Akt1 / Akt2: biochemical activity based assay, log units
T3 sequence (P31749 whole entry): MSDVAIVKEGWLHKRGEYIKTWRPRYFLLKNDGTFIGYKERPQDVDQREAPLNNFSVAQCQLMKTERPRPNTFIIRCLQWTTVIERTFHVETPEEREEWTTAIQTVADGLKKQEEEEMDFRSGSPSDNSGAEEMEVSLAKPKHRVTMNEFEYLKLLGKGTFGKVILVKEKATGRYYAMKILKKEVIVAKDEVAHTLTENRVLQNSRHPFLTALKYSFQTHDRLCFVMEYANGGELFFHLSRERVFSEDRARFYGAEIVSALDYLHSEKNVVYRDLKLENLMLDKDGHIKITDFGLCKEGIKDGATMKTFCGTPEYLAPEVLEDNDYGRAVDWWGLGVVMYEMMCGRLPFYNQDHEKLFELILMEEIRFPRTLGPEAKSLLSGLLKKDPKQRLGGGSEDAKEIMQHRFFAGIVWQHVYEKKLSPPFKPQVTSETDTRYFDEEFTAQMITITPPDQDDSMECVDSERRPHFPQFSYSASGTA

Akt2 [5] = biological target: T1, Akt2; experiment: STK HTRF KinEASE activity-based assay (IC50)
Akt1 [6] = biological target: T3, Akt1; experiment: PhosphoSens continuous fluorometric kinetic enzyme assay
Description: as §2

[7] = test system: pAkt^S473 and downstream targets in Ba/F3 myr-Akt3; experiment: Western blot analysis, Ba/F3 myr-Akt3 cells; format: cell-based, murine; settings: Ba/F3 myr-Akt3, 4-h treatment
[8] = CellTiter-Glo cell viability assay; format: cell-based, murine; settings: mouse, parental Ba/F3 cells, CTG, parental, 5000 nM, single replicates
[9] = Mus musculus, read-out: CTG BaF3myr-Akt1, individual determinations, single replicates
[10] = read-out: CTG BaF3myr-Akt1, individual determinations, single replicates
[11] = Mus musculus, BaF3, parental cells, mean of replicates, read-out: CTG BaF3, Mean
[12] = Mus musculus, BaF3, parental cells, single replicates, read-out: CTG BaF3, individual determinations
[13] = parental cells, single replicates, read-out: CTG BaF3, individual determinations
[14] = Ki Akt2, Mean, mean of replicates
[15] = Ki Akt2, individual determinations, single replicates
[16] = read-out: kinact Akt2, individual determinations, single replicates
[17] = Mus musculus, read-out: CTG BaF3myr-Akt3, Mean, mean of replicates
[18] = Mus musculus, read-out: CTG BaF3myr-Akt3, individual determinations, single replicates
[19] = read-out: CTG BaF3myr-Akt3, individual determinations, single replicates
[20] = HTRF IC50 Akt3, individual determinations, single replicates
[21] = IC50 Akt3, HTRF, ATP at KM, 1 h preincubation
[22] = Mus musculus, read-out: CTG BaF3myr-Akt2, Mean, mean of replicates
[23] = read-out: CTG BaF3myr-Akt2, individual determinations, single replicates
[24] = HTRF IC50 Akt1, Mean, mean of replicates
[25] = HTRF IC50 Akt1, individual determinations, single replicates
[26] = IC50 Akt1, HTRF, ATP at KM, 1 h preincubation
[27] = HTRF IC50 Akt2, Mean, mean of replicates
[28] = HTRF IC50 Akt2, individual determinations, single replicates
[29] = IC50 Akt2, HTRF, ATP at KM, 1 h preincubation

EC50 (Ba/F3^myr-Akt1 cells; Mus musculus, read-out: CTG BaF3myr-Akt1, Mean, mean of replicates): 19700 nM | EC50 (Ba/F3^myr-Akt1 cells; [9]): 21200 nM | EC50 (Ba/F3^myr-Akt1 cells; [10]): 13300 nM and 24600 nM | Ki (Akt2 [1]; Ki Akt2): 21 ± 5 nM | Ki (Akt2 [1]; [14]): 21.3 nM | Ki (Akt2 [1]; [15]): 27.2 nM and 15.6 nM | kinact/KI (Akt2 [1]; read-out: kinact /Ki Akt2): 12000 ± 5000 M⁻¹ s⁻¹ | kinact (Akt2 [1]; read-out: kinact Akt2): 0.000233 s⁻¹ | kinact (Akt2 [1]; [16]): 0.000267 s⁻¹ | kinact Akt2, individual determinations (Akt2 [1]; single replicates): 0.017 min⁻¹ and 0.009 min⁻¹ | Ki (Akt3 [2]; Ki Akt3): 64 ± 4 nM | Ki (Akt3 [2]; Ki Akt3, Mean, mean of replicates): 63.8 nM | Ki (Akt3 [2]; Ki Akt3, individual determinations, single replicates): 62.6 nM and 69.3 nM and 59.4 nM | kinact/KI (Akt3 [2]; read-out: kinact /Ki Akt3): 8000 ± 1000 M⁻¹ s⁻¹ | kinact/KI (Akt3 [2]; read-out: kinact /Ki Akt3, individual determinations, single replicates): 7000 M⁻¹ s⁻¹ | kinact (Akt3 [2]; read-out: kinact Akt3): 0.000517 s⁻¹ | kinact (Akt3 [2]; read-out: kinact Akt3, Mean, mean of replicates): 0.000517 s⁻¹ | kinact (Akt3 [2]; read-out: kinact Akt3, individual determinations, single replicates): 0.000433 s⁻¹ | kinact /Ki Akt3, individual determinations (Akt3 [2]; single replicates): 0.009 | kinact Akt3, individual determinations (Akt3 [2]; single replicates): 0.037 min⁻¹ and 0.031 min⁻¹ | EC50 (Ba/F3^myr-Akt3 cells; [17]): 6520 nM | EC50 (Ba/F3^myr-Akt3 cells; [18]): 5550 nM | EC50 (Ba/F3^myr-Akt3 cells; [19]): 6270 nM and 7120 nM | IC50 (Akt3 [3]; [20]): 233 nM and 416 nM and 225 nM and 214 nM | IC50 (Akt3 [3]; [21]): 272 ± 84 nM | EC50 (Ba/F3^myr-Akt2 cells; [22]): 2230 nM | EC50 (Ba/F3^myr-Akt2 cells; Mus musculus, read-out: CTG BaF3myr-Akt2, individual determinations, single replicates): 2020 nM | EC50 (Ba/F3^myr-Akt2 cells; [23]): 2490 nM and 2190 nM | IC50 (Akt1 [4]; [24]): 1800 nM | IC50 (Akt1 [4]; [25]): 1820 nM and 2040 nM and 2470 nM and 858 nM | IC50 (Akt1 [4]; [26]): 2110 ± 268 nM | Log ratio IC50 [Akt] / IC50 [Akt], Akt1 / Akt2 (Akt1 [4]): 1.30 | IC50 (Akt2 [5]; [27]): 98.5 nM | IC50 (Akt2 [5]; [28]): 92.9 nM and 124 nM and 104 nM | IC50 (Akt2 [5]; [29]): 99 ± 6 nM
SMILES: C=CC(=O)Nc1ccc2[nH]c(=O)n(C3CCN(Cc4ccc(-c5ncc(Cc6cccnc6)cc5-c5ccccc5)cc4)CC3)c2c1 [compound 21]
Log ratio EC50 [Akt] / EC50 [Akt], Akt1 / Akt2 (Ba/F3^myr-Akt1 cells): 0.95 | EC50 (parental Ba/F3 cells; [11]): 14700 nM | EC50 (parental Ba/F3 cells; [12]): 18200 nM | EC50 (parental Ba/F3 cells; [13]): 11700 nM and 14300 nM | Log ratio EC50 [Akt] / EC50 [Akt], Akt3 / Akt2 (Ba/F3^myr-Akt3 cells): -0.46

EC50 (Ba/F3^myr-Akt1 cells; [9]): > 30000 nM | EC50 (Ba/F3^myr-Akt1 cells; [10]): 15100 nM and 22500 nM | Ki (Akt1 [6]; Ki Akt1): 9 ± 3 nM | Ki (Akt1 [6]; Ki Akt1, Mean, mean of replicates): 8.74 nM | Ki (Akt1 [6]; Ki Akt1, individual determinations, single replicates): 12 nM and 5.9 nM and 8.3 nM | kinact/KI (Akt1 [6]; read-out: kinact /Ki Akt1): 26000 ± 1000 M⁻¹ s⁻¹ | kinact/KI (Akt1 [6]; read-out: kinact /Ki Akt1, Mean, mean of replicates): 26000 M⁻¹ s⁻¹ | kinact/KI (Akt1 [6]; read-out: kinact /Ki Akt1, individual determinations, single replicates): 26000 M⁻¹ s⁻¹ | kinact (Akt1 [6]; read-out: kinact Akt1): 0.000233 s⁻¹ | kinact (Akt1 [6]; read-out: kinact Akt1, individual determinations, single replicates): 0.000317 s⁻¹ | kinact Akt1, individual determinations (Akt1 [6]; single replicates): 0.010 min⁻¹ and 0.013 min⁻¹ | Ki (Akt2 [1]; Ki Akt2): 11 ± 1 nM | Ki (Akt2 [1]; [14]): 10.8 nM | Ki (Akt2 [1]; [15]): 9.4 nM and 10.7 nM and 12.2 nM | kinact/KI (Akt2 [1]; read-out: kinact /Ki Akt2): 23000 ± 7000 M⁻¹ s⁻¹ | kinact/KI (Akt2 [1]; read-out: kinact /Ki Akt2, Mean, mean of replicates): 23000 M⁻¹ s⁻¹ | kinact/KI (Akt2 [1]; read-out: kinact /Ki Akt2, individual determinations, single replicates): 30000 M⁻¹ s⁻¹ | kinact (Akt2 [1]; read-out: kinact Akt2): 0.000233 s⁻¹ | kinact (Akt2 [1]; [16]): 0.000283 s⁻¹ | kinact Akt2, individual determinations (Akt2 [1]; single replicates): 0.013 min⁻¹ and 0.012 min⁻¹ | EC50 (Ba/F3^myr-Akt3 cells; [17]): 18800 nM | EC50 (Ba/F3^myr-Akt3 cells; [18]): 18300 nM | EC50 (Ba/F3^myr-Akt3 cells; [19]): 20700 nM and 18200 nM | IC50 (Akt3 [3]; HTRF IC50 Akt3, Mean, mean of replicates): 3050 nM | IC50 (Akt3 [3]; [20]): 2240 nM and 3090 nM and 3820 nM | IC50 (Akt3 [3]; [21]): 3050 ± 646 nM | EC50 (Ba/F3^myr-Akt2 cells; [22]): 3680 nM | EC50 (Ba/F3^myr-Akt2 cells; [23]): 3180 nM and 5400 nM and 2460 nM | IC50 (Akt1 [4]; [24]): 209 nM | IC50 (Akt1 [4]; [25]): 248 nM and 169 nM and 245 nM | IC50 (Akt1 [4]; [26]): 209 ± 40 nM | Log ratio IC50 [Akt] / IC50 [Akt], Akt1 / Akt2 (Akt1 [4]): 0.58 | IC50 (Akt2 [5]; [27]): 54.7 nM | IC50 (Akt2 [5]; [28]): 57.5 nM and 58.8 nM and 47.9 nM | IC50 (Akt2 [5]; [29]): 55 ± 5 nM
SMILES: C=CC(=O)Nc1ccc2[nH]c(=O)n(C3CCN(Cc4ccc(-c5ncc(C(=O)Nc6cccnc6)cc5-c5ccccc5)cc4)CC3)c2c1 [compound 22]
Log ratio EC50 [Akt] / EC50 [Akt], Akt1 / Akt2 (Ba/F3^myr-Akt1 cells): 0.79 | EC50 (parental Ba/F3 cells; Mus musculus, BaF3, CTG, parental BaF3 cell line, read-out: EC50 BaF3): > 30000 nM | EC50 (parental Ba/F3 cells; [11]): > 30000 nM | EC50 (parental Ba/F3 cells; [12]): > 30000 nM | EC50 (parental Ba/F3 cells; [13]): > 30000 nM | Log ratio EC50 [Akt] / EC50 [Akt], Akt3 / Akt2 (Ba/F3^myr-Akt3 cells): -0.71

SMILES: C=CC(=O)Nc1ccc2[nH]c(=O)n(C3CCN(Cc4ccc(-c5[nH]c(=O)c(CC(C)C)nc5-c5ccccc5)cc4)CC3)c2c1 [16b, reference compound]
pAkt and downstream targets (immunoblot) [7]: preferential binding | cell viability (Ba/F3^myr-Akt1 cells; myr-Akt1, 0.1 nM, single replicates, 0.0001 µM): 105.6 % of control | cell viability (Ba/F3^myr-Akt1 cells; myr-Akt1, 5000 nM, single replicates, 5 µM): 102.7 % of control and 99.1 % of control | EC50 (Ba/F3^myr-Akt1 cells; [9]): 29700 nM | viability at 0.0001 µM (Ba/F3^myr-Akt1 cells; Mus musculus, read-out: cell viability, CTG, myr-Akt1, 0.1 nM, single replicates): 99% | viability at 5 µM (Ba/F3^myr-Akt1 cells; Mus musculus, read-out: cell viability, CTG, myr-Akt1, 5000 nM, single replicates): 102% | EC50 (Ba/F3^myr-Akt1 cells; [10]): 29800 nM and > 30000 nM | cell viability (parental Ba/F3 cells; 0.1 nM, single replicates, 0.0001 µM): 102.9 % of control and 116.0 % of control and 91.9 % of control | cell viability (parental Ba/F3 cells; 5000 nM, single replicates, 5 µM): 99.0 % of control and 116.0 % of control | EC50 (parental Ba/F3 cells; [11]): 20100 nM | EC50 (parental Ba/F3 cells; [12]): 21600 nM | EC50 (parental Ba/F3 cells; [13]): 15900 nM and 22900 nM | viability at 3 days, 5 µM [8]: 98% | cell viability (Ba/F3^myr-Akt3 cells; myr-Akt3, 0.1 nM, single replicates, 0.0001 µM): 96.8 % of control | cell viability (Ba/F3^myr-Akt3 cells; myr-Akt3, 5000 nM, single replicates, 5 µM): 61.2 % of control | EC50 (Ba/F3^myr-Akt3 cells; [19]): > 30000 nM and 24500 nM and 11400 nM
